The values that follow come from article PMC12366332 (Applied and Environmental Microbiology, 2025).

The test system of series [1] is X. fastidiosa subsp. fastidiosa IVIA 5387.2.
A further series relates to horse erythrocytes. The following applies: red cells of horse, 50 µM.
A further series deals with tobacco leaves. Particulars: 150 µM; after 48 h.
The subject of a further series is E. coli 0111:B4 LPS. It is filed as biochemical, Escherichia coli.

Where two headings read alike, the source gives them in different places. Square brackets hold non-standard residues; d marks the D form. Peptide text beside a SMILES is read from it. * marks the point of attachment. Butyryl = CCCC(=O)*

`CCCC(=O)NCCCC[C@H](NC(=O)[C@H](CCCCN)NC(=O)[C@H](CC(C)C)NC(=O)[C@@H](NC(=O)[C@H](CCCCN)NC(=O)[C@H](CCCCN)NC(=O)[C@H](Cc1ccccc1)NC(=O)[C@H](CC(C)C)NC(=O)[C@H](CCCCN)NC(=O)[C@H](CCCCN)NC(C)=O)[C@@H](C)CC)C(=O)N[C@@H](CC(C)C)C(N)=O` [BP389, Ac-KKLFKKILKK(COC3H7)L-NH2]: the “Bactericidal activity Reduction in viability (Log N0/N)” value in series [1] (3.1 µM) was 0,02 Log N0/N; in series [1] (12.5 µM), 1,51 Log N0/N. Also, the “Bactericidal activity Level” value in series [1] (50 µM) is “High (key: Very High: very high bactericidal activity (>2.5 log); High: high bactericidal activity (between 2.0 and 2.5 log); Moderate: a moderate activity (between 1.5 and 2.0 log); Low: low active (<1.5 log))”. Also, in the series on horse erythrocytes, the “Hemolytic activity (%)” value is reported as 9%. The “Phytotoxicity: diameter of the lesion” value in the series on tobacco leaves stood at 7 mm.
Consider `CCCC(=O)NCCCC[C@H](NC(=O)[C@H](CCCCN)NC(=O)[C@@H](Cc1ccccc1)NC(=O)[C@H](CC(C)C)NC(=O)[C@H](CCCCN)NC(=O)[C@H](CCCCN)NC(C)=O)C(=O)N[C@H](C(=O)N[C@@H](CC(C)C)C(=O)N[C@@H](CCCCN)C(=O)N[C@@H](Cc1ccc(O)cc1)C(=O)N[C@@H](CC(C)C)C(N)=O)[C@@H](C)CC` [BP473, Ac-KKLfKK(COC3H7)ILKYL-NH2], for which the “Bactericidal activity Reduction in viability (Log N0/N)” value in series [1] (3.1 µM) is listed as 0,64 Log N0/N. Further, the “Bactericidal activity Level” value in series [1] (50 µM) is “Very High (key: Very High: very high bactericidal activity (>2.5 log); High: high bactericidal activity (between 2.0 and 2.5 log); Moderate: a moderate activity (between 1.5 and 2.0 log); Low: low active (<1.5 log))”. In addition, in series [1] (3 h), it took 4.75 µM to reach a half-maximal effect (EC50). The “Hemolytic activity (%)” value with horse erythrocytes was 7%. For the same molecule, the “Phytotoxicity: diameter of the lesion” value in the series with tobacco leaves was found to be 4 mm.
In the case of `CCCC(=O)NCCCC[C@H](NC(=O)[C@@H](NC(=O)[C@H](CCCCN)NC(=O)[C@H](CCCCN)NC(=O)[C@@H](Cc1ccccc1)NC(=O)[C@H](CC(C)C)NC(=O)[C@H](CCCCN)NC(=O)[C@H](CCCCN)NC(C)=O)[C@@H](C)CC)C(=O)N[C@@H](CCCCN)C(=O)N[C@@H](Cc1ccc(O)cc1)C(=O)N[C@@H](CC(C)C)C(N)=O` [BP474, Ac-KKLfKKIK(COC3H7)KYL-NH2], in series [1] (50 µM), the “Bactericidal activity Level” value was “Moderate (key: Very High: very high bactericidal activity (>2.5 log); High: high bactericidal activity (between 2.0 and 2.5 log); Moderate: a moderate activity (between 1.5 and 2.0 log); Low: low active (<1.5 log))”; the “Bactericidal activity Reduction in viability (Log N0/N)” value is 1,76 Log N0/N. In addition, the “Hemolytic activity (%)” value in the series with horse erythrocytes is on record as 0%. Moreover, the “Phytotoxicity: diameter of the lesion” value in the series with tobacco leaves is 2 mm.
As to `CCCC(=O)NCCCC[C@H](NC(=O)[C@H](CCCCN)NC(=O)[C@H](CC(C)C)NC(=O)[C@@H](NC(=O)[C@H](CCCCN)NC(=O)[C@H](CCCCN)NC(=O)[C@@H](Cc1ccccc1)NC(=O)[C@H](CC(C)C)NC(=O)[C@H](CCCCN)NC(=O)[C@H](CCCCN)NC(C)=O)[C@@H](C)CC)C(=O)N[C@@H](CC(C)C)C(N)=O` [BP475, Ac-KKLfKKILKK(COC3H7)L-NH2], the “Bactericidal activity Reduction in viability (Log N0/N)” value in series [1] (12.5 µM) is 1,04 Log N0/N. Also, in series [1] (50 µM), the “Bactericidal activity Level” value is “High (key: Very High: very high bactericidal activity (>2.5 log); High: high bactericidal activity (between 2.0 and 2.5 log); Moderate: a moderate activity (between 1.5 and 2.0 log); Low: low active (<1.5 log))”. The “Hemolytic activity (%)” value in the series on horse erythrocytes was 0%. In addition, the “Phytotoxicity: diameter of the lesion” value with tobacco leaves is 4 mm.
Take `CCCC(=O)N[C@@H](CCCCN)C(=O)N[C@@H](CCCCN)C(=O)N[C@@H](CC(C)C)C(=O)N[C@H](Cc1ccccc1)C(=O)N[C@@H](CCCCN)C(=O)N[C@@H](CCCCN)C(=O)N[C@H](C(=O)N[C@@H](CC(C)C)C(=O)N[C@@H](CCCCN)C(=O)N[C@@H](Cc1ccc(O)cc1)C(=O)N[C@@H](CC(C)C)C(N)=O)[C@@H](C)CC` [BP485, C3H7CO-KKLfKKILKYL-NH2]: the “Bactericidal activity Reduction in viability (Log N0/N)” value in series [1] (12.5 µM) is reported as 0,49 Log N0/N. Also, in series [1] (50 µM), the “Bactericidal activity Level” value was “Moderate (key: Very High: very high bactericidal activity (>2.5 log); High: high bactericidal activity (between 2.0 and 2.5 log); Moderate: a moderate activity (between 1.5 and 2.0 log); Low: low active (<1.5 log))”; the “Bactericidal activity Reduction in viability (Log N0/N)” value is reported as 1,92 Log N0/N. For the same molecule, the “Hemolytic activity (%)” value with horse erythrocytes was found to be 3%. Besides, the “Phytotoxicity: diameter of the lesion” value with tobacco leaves was determined as 3 mm.
In the case of `CCCCCCCCCCCC(=O)NCCCC[C@H](NC(=O)[C@@H](NC(=O)[C@H](CCCCN)NC(=O)[C@H](CCCCN)NC(=O)[C@@H](Cc1ccccc1)NC(=O)[C@H](CC(C)C)NC(=O)[C@H](CCCCN)NC(=O)[C@H](CCCCN)NC(C)=O)[C@@H](C)CC)C(=O)N[C@@H](CCCCN)C(=O)N[C@@H](Cc1ccc(O)cc1)C(=O)N[C@@H](CC(C)C)C(N)=O` [BP490, Ac-KKLfKKIK(COC11H23)KYL-NH2], in series [1] (3.1 µM), the “Bactericidal activity Reduction in viability (Log N0/N)” value is recorded as 1,28 Log N0/N. Also, the “Bactericidal activity Level” value in series [1] (50 µM) was “High (key: Very High: very high bactericidal activity (>2.5 log); High: high bactericidal activity (between 2.0 and 2.5 log); Moderate: a moderate activity (between 1.5 and 2.0 log); Low: low active (<1.5 log))”. Further, in the series on horse erythrocytes, the “Hemolytic activity (%)” value is 100%. In the series on tobacco leaves, the “Phytotoxicity: diameter of the lesion” value was found to be 6 mm.
In the case of `CCCCCC(=O)NCCCC[C@H](NC(=O)[C@H](CCCCN)NC(=O)[C@H](CCCCN)NC(=O)[C@@H](Cc1ccccc1)NC(=O)[C@H](CC(C)C)NC(=O)[C@H](CCCCN)NC(=O)[C@H](CCCCN)NC(C)=O)C(=O)N[C@@H](CC(C)C)C(=O)N[C@@H](CCCCN)C(=O)N[C@@H](Cc1ccc(O)cc1)C(=O)N[C@@H](CC(C)C)C(N)=O` [BP494, Ac-KKLfKKK(COC5H11)LKYL-NH2], in series [1] (50 µM), the “Bactericidal activity Level” value is “Low (key: Very High: very high bactericidal activity (>2.5 log); High: high bactericidal activity (between 2.0 and 2.5 log); Moderate: a moderate activity (between 1.5 and 2.0 log); Low: low active (<1.5 log))”; the “Bactericidal activity Reduction in viability (Log N0/N)” value was 1,21 Log N0/N. The “Hemolytic activity (%)” value in the series on horse erythrocytes is 0%. For the same molecule, in the series with E. coli 0111:B4 LPS, the “LPS neutralization Ratio (treatment/NTC)” value is recorded as 0,51. Further, in the series with tobacco leaves, the “Phytotoxicity: diameter of the lesion” value amounted to 6 mm.
With `CCCCCC(=O)NCCCC[C@H](NC(=O)[C@H](Cc1ccc(O)cc1)NC(=O)[C@H](CCCCN)NC(=O)[C@H](CC(C)C)NC(=O)[C@@H](NC(=O)[C@H](CCCCN)NC(=O)[C@H](CCCCN)NC(=O)[C@@H](Cc1ccccc1)NC(=O)[C@H](CC(C)C)NC(=O)[C@H](CCCCN)NC(=O)[C@H](CCCCN)NC(C)=O)[C@@H](C)CC)C(N)=O` [BP495, Ac-KKLfKKILKYK(COC5H11)-NH2], the “Bactericidal activity Reduction in viability (Log N0/N)” value in series [1] (12.5 µM) is 0,03 Log N0/N. Moreover, the “Bactericidal activity Level” value in series [1] (50 µM) was “High (key: Very High: very high bactericidal activity (>2.5 log); High: high bactericidal activity (between 2.0 and 2.5 log); Moderate: a moderate activity (between 1.5 and 2.0 log); Low: low active (<1.5 log))”. Moreover, the “Hemolytic activity (%)” value with horse erythrocytes is 0%. Also, in the series with E. coli 0111:B4 LPS, the “LPS neutralization Ratio (treatment/NTC)” value is 0,55. For the same molecule, the “Phytotoxicity: diameter of the lesion” value with tobacco leaves was found to be 6 mm.
Consider `CCCC(=O)NCCCC[C@H](NC(=O)[C@H](Cc1ccc(O)cc1)NC(=O)[C@H](CCCCN)NC(=O)[C@H](CC(C)C)NC(=O)[C@@H](NC(=O)[C@H](CCCCN)NC(=O)[C@H](CCCCN)NC(=O)[C@@H](Cc1ccccc1)NC(=O)[C@H](CC(C)C)NC(=O)[C@H](CCCCN)NC(=O)[C@H](CCCCN)NC(C)=O)[C@@H](C)CC)C(N)=O` [BP496, Ac-KKLfKKILKYK(COC3H7)-NH2] (Ac-KKL[dF]KKILKYK(Butyryl)-NH2), for which, in series [1] (50 µM), the “Bactericidal activity Level” value was “Low (key: Very High: very high bactericidal activity (>2.5 log); High: high bactericidal activity (between 2.0 and 2.5 log); Moderate: a moderate activity (between 1.5 and 2.0 log); Low: low active (<1.5 log))”; the “Bactericidal activity Reduction in viability (Log N0/N)” value is reported as 0,69 Log N0/N. Besides, in the series with horse erythrocytes, the “Hemolytic activity (%)” value came out at 0%. For the same molecule, the “LPS neutralization Ratio (treatment/NTC)” value in the series with E. coli 0111:B4 LPS was 0,92. Also, the “Phytotoxicity: diameter of the lesion” value in the series on tobacco leaves stood at 4 mm.
Consider `CCCC(=O)NCCCC[C@H](NC(=O)[C@@H](Cc1ccccc1)NC(=O)[C@H](CC(C)C)NC(=O)[C@H](CCCCN)NC(=O)[C@H](CCCCN)NC(C)=O)C(=O)N[C@@H](CCCCN)C(=O)N[C@H](C(=O)N[C@@H](CC(C)C)C(=O)N[C@@H](CCCCN)C(=O)N[C@@H](Cc1ccc(O)cc1)C(=O)N[C@@H](CC(C)C)C(N)=O)[C@@H](C)CC` [BP498, Ac-KKLfK(COC3H7)KILKYL-NH2], for which, in series [1] (50 µM), the “Bactericidal activity Level” value was “Moderate (key: Very High: very high bactericidal activity (>2.5 log); High: high bactericidal activity (between 2.0 and 2.5 log); Moderate: a moderate activity (between 1.5 and 2.0 log); Low: low active (<1.5 log))”; the “Bactericidal activity Reduction in viability (Log N0/N)” value is 1,58 Log N0/N. Further, the “Hemolytic activity (%)” value in the series on horse erythrocytes is recorded as 9%. In addition, the “LPS neutralization Ratio (treatment/NTC)” value in the series on E. coli 0111:B4 LPS was 0,40. Further, the “Phytotoxicity: diameter of the lesion” value in the series with tobacco leaves is given as 7 mm.
On to `CCCCCCCCCCCC(=O)NCCCC[C@H](NC(=O)[C@H](CCCCN)NC(=O)[C@H](CCCCN)NC(C)=O)C(=O)N[C@H](Cc1ccccc1)C(=O)N[C@@H](CCCCN)C(=O)N[C@@H](CCCCN)C(=O)N[C@H](C(=O)N[C@@H](CC(C)C)C(=O)N[C@@H](CCCCN)C(=O)N[C@@H](Cc1ccc(O)cc1)C(=O)N[C@@H](CC(C)C)C(N)=O)[C@@H](C)CC` [BP500, Ac-KKK(COC11H23)fKKILKYL-NH2], for which, in series [1] (50 µM), the “Bactericidal activity Level” value was “Low (key: Very High: very high bactericidal activity (>2.5 log); High: high bactericidal activity (between 2.0 and 2.5 log); Moderate: a moderate activity (between 1.5 and 2.0 log); Low: low active (<1.5 log))”; the “Bactericidal activity Reduction in viability (Log N0/N)” value is recorded as 1,37 Log N0/N. In addition, the “Hemolytic activity (%)” value in the series with horse erythrocytes was 99%. For the same molecule, the “Phytotoxicity: diameter of the lesion” value in the series with tobacco leaves is on record as 8 mm.
